pIC50: −log10 of the molar value.
Experiments:
CYP2D6 = target: T1, CYP2D6 (Homo sapiens, UniProt P10635); test: CYP inhibition assay in human liver microsome; type: in vitro ADME; conditions: human liver microsomes, probe dextromethorphan, dextromethorphan substrate, percentage inhibition <0: not or weak inhibitor, read-out: CYP 2D6 inhibition % @ 10 μM
T1 construct: tissue BD-Gentest 452117; host or cells: human liver microsomes
Method: This is a high throughput screening assay used for assessment of reversible inhibition of CYP2D6 activity of test compounds in human liver microsome (HLM) in early discovery stage.
10 mM DMSO stock solutions of test compounds were diluted in DMSO to generate 2 mM intermediate stock solution. 250 nL of intermediate stock solution were transferred in duplicate into 3 separate 384 well microtitre plates (assay-ready plates). A mixture of HLM and each substrate was made up. 45 μL of HLM substrate mix was then transferred to each well of an assay ready plate and mixed. The negative (solvent) and positive control (standard inhibitor for CYP 2D6) were included in each assay ready plate. The assay ready plate was warmed to 37° C. in an incubator over 10 minutes. 5 μL pre-warmed NADPH regenerating system was added to each incubation well to start the reaction. Final incubation volume was 50 μL. The assay plate then was placed back in the 37° C. incubator. After 10 minutes incubation, incubates were quenched by addition of 50 μL 100% acetonitrile containing internal standards (20 ng/mL D3-Dextrorphan). The supernatants were collected for RapidFire/MS/MS analysis.
RapidFire online solid phase extraction/sample injection system (Agilent) coupled with API4000 triple quadrupole mass spectrometer (AB Sciex) were used for sample analysis. The mobile phase composed of acetonitrile and water supplemented with 0.1% formic acid. A C4 solid phase extraction cartridge is used for sample separation. MS detection is achieved in positive ion MRM mode.
Peak areas for substrate, metabolite and internal standard are determined using the RapidFire integrator software (version 3.6.12009.12296). Peak area ratios (PAR) of metabolite and internal standard (stable-labelled metabolite) are then calculated. The measurement window for each experiment is then defined:
PAR (0% activity)=average PAR for all incubations containing concentrated inhibitor;
Par (100% activity)=average PAR for all incubations containing no inhibitor (DMSO controls);
% Activity (test inhibitor)=
[PAR(test inhibitor)−PAR(0% activity)]/[PAR(100% activity)−PAR(0% activity)]; % Inhibition (test inhibitor)=100−% Activity (test inhibitor).

human TLR7 = target: T2, human TLR7 (Homo sapiens, UniProt Q9NYK1); test: HEK293-Blue-hTLR-7 cells assay; type: cell-based; conditions: HEK293-Blue-hTLR7 cells, R848 stimulation, 20 hrs, SEAP reporter; read-out: HEK/hTLR7 IC50
T2 construct: host or cells: HEK293 (HEK-Blue hTLR7)
T2 sequence (Q9NYK1 27-1049): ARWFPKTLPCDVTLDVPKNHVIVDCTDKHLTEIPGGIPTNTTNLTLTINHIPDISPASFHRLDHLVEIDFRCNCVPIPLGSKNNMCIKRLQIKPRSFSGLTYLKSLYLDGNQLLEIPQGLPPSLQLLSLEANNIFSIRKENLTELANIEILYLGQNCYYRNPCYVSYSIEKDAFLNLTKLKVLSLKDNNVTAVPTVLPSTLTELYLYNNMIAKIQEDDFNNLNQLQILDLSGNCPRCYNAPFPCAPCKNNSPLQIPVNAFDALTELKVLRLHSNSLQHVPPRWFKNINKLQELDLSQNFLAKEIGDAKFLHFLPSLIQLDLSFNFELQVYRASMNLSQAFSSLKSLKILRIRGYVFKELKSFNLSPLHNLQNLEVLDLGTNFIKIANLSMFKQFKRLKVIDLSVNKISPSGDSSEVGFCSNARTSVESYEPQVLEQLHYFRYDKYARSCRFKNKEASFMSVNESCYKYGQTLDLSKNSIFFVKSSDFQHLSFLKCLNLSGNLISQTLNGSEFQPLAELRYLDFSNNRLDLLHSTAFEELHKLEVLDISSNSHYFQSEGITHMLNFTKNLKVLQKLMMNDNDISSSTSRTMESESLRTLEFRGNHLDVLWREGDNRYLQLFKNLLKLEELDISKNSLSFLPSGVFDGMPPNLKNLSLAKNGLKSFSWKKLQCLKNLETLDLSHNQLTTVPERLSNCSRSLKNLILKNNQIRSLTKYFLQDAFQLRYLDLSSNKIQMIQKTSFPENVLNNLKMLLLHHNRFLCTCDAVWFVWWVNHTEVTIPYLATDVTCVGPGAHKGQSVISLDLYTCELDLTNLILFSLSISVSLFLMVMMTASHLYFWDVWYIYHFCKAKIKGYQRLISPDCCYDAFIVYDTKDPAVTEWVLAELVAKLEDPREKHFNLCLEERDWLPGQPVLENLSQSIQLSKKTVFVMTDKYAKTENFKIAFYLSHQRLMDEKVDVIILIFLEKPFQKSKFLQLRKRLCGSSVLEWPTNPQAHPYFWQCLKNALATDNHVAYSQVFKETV
Source text: HEK293-Blue-hTLR-7 cells assay:
A stable HEK293-Blue-hTLR-7 cell line was purchased from InvivoGen (Cat. #: hkb-htlr7, San Diego, Calif., USA). These cells were originally designed for studying the stimulation of human TLR7 by monitoring the activation of NF-κB. A SEAP (secreted embryonic alkaline phosphatase) reporter gene was placed under the control of the IFN-β minimal promoter fused to five NF-κB and AP-1-binding sites. The SEAP was induced by activating NF-κB and AP-1 via stimulating HEK-Blue hTLR7 cells with TLR7 ligands. Therefore the reporter expression was declined by TLR7 antagonist under the stimulation of a ligand, such as R848 (Resiquimod), for incubation of 20 hrs. The cell culture supernatant SEAP reporter activity was determined using QUANTI-Blue™ kit (Cat. #: rep-qb1, Invivogen, San Diego, Ca, USA) at a wavelength of 640 nm, a detection medium that turns purple or blue in the presence of alkaline phosphatase.
HEK293-Blue-hTLR7 cells were incubated at a density of 250,000-450,000 cells/mL in a volume of 170 μL in a 96-well plate in Dulbecco's Modified Eagle's medium (DMEM) containing 4.5 g/L glucose, 50 U/mL penicillin, […], […], 2 mM L-glutamine, 10% (v/v) heat-inactivated fetal bovine serum with addition of 20 μL test compound in a serial dilution in the presence of final DMSO at 1% and 10 μL of 20 uM R848 in above DMEM, perform incubation under 37° C. in a CO2 incubator for 20 hrs. Then 20 μL of the supernatant from each well was incubated with 180 μL Quanti-blue substrate solution at 37° C. for 2 hrs and the absorbance was read at 620˜655 nm using a spectrophotometer. The signaling pathway that TLR7 activation leads to downstream NF-κB activation has been widely accepted, and therefore similar reporter assay was modified for evaluating TLR7 antagonist.

T1 sequence (P10635 whole entry): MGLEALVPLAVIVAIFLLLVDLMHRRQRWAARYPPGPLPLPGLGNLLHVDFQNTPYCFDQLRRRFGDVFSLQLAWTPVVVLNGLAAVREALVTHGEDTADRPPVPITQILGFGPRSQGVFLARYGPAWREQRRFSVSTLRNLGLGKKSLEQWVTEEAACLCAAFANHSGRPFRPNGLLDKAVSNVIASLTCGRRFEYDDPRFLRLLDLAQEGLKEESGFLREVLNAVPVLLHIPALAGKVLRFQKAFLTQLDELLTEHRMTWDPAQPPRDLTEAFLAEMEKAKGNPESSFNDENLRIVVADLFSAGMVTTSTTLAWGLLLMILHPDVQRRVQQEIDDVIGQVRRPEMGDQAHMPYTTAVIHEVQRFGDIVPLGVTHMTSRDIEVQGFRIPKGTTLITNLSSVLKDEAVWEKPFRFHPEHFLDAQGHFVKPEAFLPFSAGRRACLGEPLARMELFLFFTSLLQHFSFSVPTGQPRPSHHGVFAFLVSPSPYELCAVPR

Cc1nn(C2CN(C[C@H]3CN(c4ccc(C#N)c5ncccc45)C[C@@H](C)O3)C2)c2c1CNCC2 [Example 12, 5-[(2R,6S)-2-methyl-6-[[3-(3-methyl-4,5,6,7-tetrahydropyrazolo[4,3-c]pyridin-1-yl)azetidin-1-yl]methyl]morpholin-4-yl]quinoline-8-carbonitrile] showed an inhibition at 10 min, 10 µM (CYP2D6) of 6% and a pIC50 (human TLR7) of 7.82.
In the case of C[C@@H]1CN(c2ccc(C#N)c3ncccc23)C[C@H](CN2CCC(n3cc4c(n3)CCNC4)CC2)O1 [Example 36, 5-[(2R,6S)-2-methyl-6-[[4-(4,5,6,7-tetrahydropyrazolo[4,3-c]pyridin-2-yl)-1-piperidyl]methyl]morpholin-4-yl]quinoline-8-carbonitrile], the inhibition at 10 min, 10 µM (CYP2D6) was 20.3% and the pIC50 (human TLR7) was 7.74.
Cc1nn(C2CN(C[C@H]3CN(c4ccc(C#N)c5ncccc45)C[C@@H](C)O3)C2)c2c1CCNC2 [Example 42, 5-[(2R,6S)-2-methyl-6-[[3-(3-methyl-4,5,6,7-tetrahydropyrazolo[3,4-c]pyridin-1-yl)azetidin-1-yl]methyl]morpholin-4-yl]quinoline-8-carbonitrile] showed an inhibition at 10 min, 10 µM (CYP2D6) of 17.5% and a pIC50 (human TLR7) of 8.15.
With C[C@@H]1CN(c2ccc(C#N)c3ncccc23)C[C@H](CN2CC(n3cc4c(n3)[C@H](C)NCC4)C2)O1 (single isomer, unassigned) [Example 34] the inhibition at 10 min, 10 µM (CYP2D6) was -11.5% and the pIC50 (human TLR7) was 8.22.
C[C@@H]1CN(c2ccc(C#N)c3ncccc23)C[C@H](CN2CC(n3cc4c(n3)[C@@H](C)CNC4)C2)O1 (single isomer, unassigned) [Example 26] gave an inhibition at 10 min, 10 µM (CYP2D6) of 20% and a pIC50 (human TLR7) of 8.22.
For C[C@@H]1CN(c2ccc(C#N)c3ncccc23)C[C@H](CN2CC(n3ncc4c3CN[C@@H](C)C4)C2)O1 (single isomer, unassigned) [Example 27], the inhibition at 10 min, 10 µM (CYP2D6) was 22% and the pIC50 (human TLR7) was 8.22.
C[C@@H]1CN(c2ccc(C#N)c3ncccc23)C[C@H](CN2CC(n3cc4c(n3)CCN[C@H]4C)C2)O1 [Example 23, 5-[(2R,6S)-2-methyl-6-[[3-[(4S)-4-methyl-4,5,6,7-tetrahydropyrazolo[4,3-c]pyridin-2-yl]azetidin-1-yl]methyl]morpholin-4-yl]quinoline-8-carbonitrile] gave an inhibition at 10 min, 10 µM (CYP2D6) of 3% and a pIC50 (human TLR7) of 7.89.
CC(C)N1CCc2cnn(C3CN(C[C@H]4CN(c5ccc(C#N)c6ncccc56)C[C@@H](C)O4)C3)c2C1 [Example 8, 5-[(2S,6R)-2-[[3-(6-isopropyl-5,7-dihydro-4H-pyrazolo[3,4-c]pyridin-1-yl)azetidin-1-yl]methyl]-6-methyl-morpholin-4-yl]quinoline-8-carbonitrile] gave an inhibition at 10 min, 10 µM (CYP2D6) of 11% and a pIC50 (human TLR7) of 7.74.
C[C@@H]1Cc2nn(C3CN(C[C@H]4CN(c5ccc(C#N)c6ncccc56)C[C@@H](C)O4)C3)cc2CN1 [Example 17, 5-[(2R,6S)-2-methyl-6-[[3-[(6R)-6-methyl-4,5,6,7-tetrahydropyrazolo[4,3-c]pyridin-2-yl]azetidin-1-yl]methyl]morpholin-4-yl]quinoline-8-carbonitrile] showed an inhibition at 10 min, 10 µM (CYP2D6) of 1.5% and a pIC50 (human TLR7) of 8.40.
For CCN1CCc2cnn(C3CN(C[C@H]4CN(c5ccc(C#N)c6ncccc56)C[C@@H](C)O4)C3)c2C1 [Example 6, 5-[(2S,6R)-2-[[3-(6-ethyl-5,7-dihydro-4H-pyrazolo[3,4-c]pyridin-1-yl)azetidin-1-yl]methyl]-6-methyl-morpholin-4-yl]quinoline-8-carbonitrile], the inhibition at 10 min, 10 µM (CYP2D6) was 8.5% and the pIC50 (human TLR7) was 7.92.
For Cc1c2c(nn1C1CN(C[C@H]3CN(c4ccc(C#N)c5ncccc45)C[C@@H](C)O3)C1)CCNC2 [Example 13, 5-[(2R,6S)-2-methyl-6-[[3-(3-methyl-4,5,6,7-tetrahydropyrazolo[4,3-c]pyridin-2-yl)azetidin-1-yl]methyl]morpholin-4-yl]quinoline-8-carbonitrile], the inhibition at 10 min, 10 µM (CYP2D6) was 3% and the pIC50 (human TLR7) was 7.85.
C[C@@H]1CN(c2ccc(C#N)c3ncccc23)C[C@H](CN2CC(n3ncc4c3CNCC4)C2)O1 [Example 3, 5-[(2R,6S)-2-methyl-6-[[3-(4,5,6,7-tetrahydropyrazolo[3,4-c]pyridin-1-yl)azetidin-1-yl]methyl]morpholin-4-yl]quinoline-8-carbonitrile] was tested, and the inhibition at 10 min, 10 µM (CYP2D6) was 10.5% and the pIC50 (human TLR7) was 8.52.
For Cc1c2c(nn1C1CN(C[C@H]3CN(c4ccc(C#N)c5ncccc45)C[C@@H](C)O3)C1)CCN(C)C2 [Example 15, 5-[(2S,6R)-2-[[3-(3,5-dimethyl-6,7-dihydro-4H-pyrazolo[4,3-c]pyridin-2-yl)azetidin-1-yl]methyl]-6-methyl-morpholin-4-yl]quinoline-8-carbonitrile], the inhibition at 10 min, 10 µM (CYP2D6) was -10.5% and the pIC50 (human TLR7) was 8.05.
C[C@@H]1CN(c2ccc(C#N)c3ncccc23)C[C@H](CN2CC(n3ncc4c3[C@H](C)NCC4)C2)O1 (single isomer, unassigned) [Example 32] gave an inhibition at 10 min, 10 µM (CYP2D6) of 11% and a pIC50 (human TLR7) of over 8.52.
C[C@@H]1CN(c2ccc(C#N)c3ncccc23)C[C@H](CN2CC(n3ncc4c3C[C@H](C)NC4)C2)O1 [Example 18, 5-[(2R,6S)-2-methyl-6-[[3-[(6S)-6-methyl-4,5,6,7-tetrahydropyrazolo[4,3-c]pyridin-1-yl]azetidin-1-yl]methyl]morpholin-4-yl]quinoline-8-carbonitrile] was tested, and the inhibition at 10 min, 10 µM (CYP2D6) was -2.5% and the pIC50 (human TLR7) was 7.77.
In the case of C[C@@H]1CN(c2ccc(C#N)c3ncccc23)C[C@H](CN2CC(n3ncc4c3CCN[C@@H]4C)C2)O1 [Example 20, 5-[(2R,6S)-2-methyl-6-[[3-[(4R)-4-methyl-4,5,6,7-tetrahydropyrazolo[4,3-c]pyridin-1-yl]azetidin-1-yl]methyl]morpholin-4-yl]quinoline-8-carbonitrile], the inhibition at 10 min, 10 µM (CYP2D6) was -6% and the pIC50 (human TLR7) was 8.30.
